# From patent publication US20250134995A1, “SAPONIN-BASED ADJUVANTS AND METHODS OF CHARACTERIZING SAME” (priority 2023, published 2025)
# Like-named read-outs stand apart in the source and are kept apart here.
# Legend:
# [1] = in vitro, free QS-21; cited from earlier work
# [2] = in vivo; cited from earlier work
molecule,measurement,setting,value
"CC(C)CCC[C@@H](C)[C@H]1CC[C@H]2[C@@H]3CC=C4C[C@@H](O)CC[C@]4(C)[C@H]3CC[C@]12C [cholesterol, cholesterol [1-2-3H (N)]]",elimination,after 168 h,lack of complete elimination
same,distribution to the iliac LN compared to inguinal LN and popliteal LN,after QF injection,substantial
same,"plateau of relative activity in intestines, lungs, and bone marrow","both, CD-1 IGS, mouse, in vivo",5-20 % ID/g tissue
same,plateau of relative radioactivity in plasma and kidney,"both, CD-1 IGS, mouse, in vivo",5%-20%
same,"start of plateau of relative activity in testes, ovaries and uterus","both, CD-1 IGS, mouse, in vivo",24 h
same,time at which systemic levels reached a plateau,"both, CD-1 IGS, mouse, in vivo",around 24 h
same,time from which cholesterol levels are significantly higher than saponin levels at the injection site,"both, CD-1 IGS, mouse, in vivo",3 to 6 h
same,time to removal from the injection site,"both, CD-1 IGS, mouse, in vivo",≤ 48 h
same,decline of counts at the injection site,compared to saponin counts,slower decline
same,early relative radioactivity in plasma and kidney,"early timepoints, in contrast to saponins",lower relative radioactivity
same,activity in urine,"mouse, in vivo",Barely detectable activity
same,injected radioactive dose per gram tissue at the injection site and in the iliac LN,"mouse, in vivo",high percentage
same,"plateauing activity in spleen, heart, and brain","mouse, in vivo",lower levels
same,relative activity in the liver,"mouse, in vivo",low levels
same,relative activity in the liver versus saponins,"mouse, in vivo",slightly higher relative activity
same,reproductive organ with the highest relative activity,"mouse, in vivo",highest relative activity of cholesterol detected in the ovaries
saponins,effect of presence of SARS-COV-2 antigen on relative activity in urine and kidney,"mouse, in vivo",increased relative activity
same,excretion pathway,"mouse, in vivo",rapidly excreted via the kidneys into urine
same,injected radioactive dose per gram tissue at the injection site and in the iliac LN,"mouse, in vivo",high percentage
same,level in bone marrow after the peak,"mouse, in vivo",declined
same,level in the QF and the iliac LN,"mouse, in vivo",low levels
same,"relative activity in plasma, urine, and kidney after the peak","mouse, in vivo",rapid decline
same,relative activity in the liver,"mouse, in vivo",low levels
same,systemic accumulation,"mouse, in vivo",do not accumulate systemically
same,"time of highest relative activity in testes, ovaries and uterus","mouse, in vivo",1 h
same,time of peak in bone marrow,"mouse, in vivo",3 h and 6 h
same,"time of peak relative activity in plasma, urine, and kidney","mouse, in vivo",1 to 3 h
same,time to near complete clearance (urine as major excretion pathway),"mouse, in vivo",≤ 7 days
same,time to removal from the injection site,"mouse, in vivo",≤ 48 h
QS-21,hemolytic activity,[1],shows hemolytic activity
same,pain at the injection site,[2],immediate pain at the injection site
